Test results published in ChEMBL document CHEMBL5584240, “Evaluation of potency and metabolic stability of diphyllin-derived Vacuolar-ATPase inhibitors” (Eur J Med Chem, 2024).
pEC50: −log10 of the molar value. Active and inactive are the calls of the source. The calls are words filed in the database; no cut-off is given here.

Key:
[1] = Oral bioavailability in ICR mouse at 75 mg/kg by LC-MS/MS analysis; type: ADME, organism-based; details: in vivo
Ebolavirus = assay: Antiviral activity against recombinant Ebola virus Mayinga expressing GFP infected in human HeLa cells with ATP6V0a2 KO assessed as reduction in viral entry into cells pretreated for 1 hr followed by viral infection measured after 24 to 48 hrs by imaging analysis; type: functional, organism-based; details: Orthoebolavirus
HEK293 = assay: Cytotoxicity against HEK293 cells incubated for 72 hrs by MTT assay; type: toxicity, cell-based; details: human, hek293, 72 h
A549 = assay: Induction of phospholipidosis in NBD-PE-treated human A549 cells at 10 uM incubated for 24 hrs by imaging based analysis; type: functional, cell-based

Structure (SMILES)	bioavailability [1]	pEC50 (Ebolavirus)	CC50 (HEK293)	Activity (A549)
COc1cc2c(O[C@@H]3O[C@H](CO)[C@@H]4OC(C)(C)O[C@@H]4[C@H]3O)c3c(c(-c4ccc5c(c4)OCO5)c2cc1OC)C(=O)OC3	2.5%			
COc1cc2c(O)c3c(c(-c4ccc5c(c4)OCO5)c2cc1OC)C(=O)OC3 [DIPHYLLIN]		5.96	> 80000 nM	inactive
